Key:
healthy volunteers [1] = experiment: 28-day once-daily dosing study in healthy volunteers (Study 1), circulating total cholesterol and oxysterols; type: in vivo, human
Protocol: Forty-two healthy volunteers received Compound 1 QD for 28 days (or before early withdrawal), with 6 individual participants per cohort receiving 1 mg (Cohort 1), 3 mg (Cohort 2), 10 mg (Cohort 3), 30 mg (Cohort 4), 60 mg loading dose with 10 mg maintenance dosing (Cohort 5) Compound 1, 60 mg (Cohort 6), or 90 mg loading dose on Day 1 and Day 2 with 30 mg maintenance dosing (Cohort 7). There were also 14 participants who received placebo in the study; 1 participant in Cohort 4 was misdosed on Day 19 and appeared to have received at least one 30 mg dose of Compound 1. The following protocol deviations were reported for participants in Cohorts 1 through 5: they received predose water ad lib (not restricted for 1 hour before and 1 hour after dose) and a meal administered 30 minutes postdose (not 4 hours postdose). A total of 49 participants completed treatment, including 37 participants who received active treatment.
Participants received the first dose of study treatment (Compound 1 or placebo) on Day 1 and continued to receive once-daily study treatment through Day 28. Participants remained in the clinic throughout the dosing period. Participants were discharged on Day 29 after completing all assessments.
Blood was periodically withdrawn from each volunteer and immediately stored at −80° C. For measuring metabolite concentrations in human serum, the samples were centrifuged and the resulting supernatant was used for further analysis.
Free oxysterols were extracted from the samples with methanol using the Biocrates Kit filter plate. The plate was loaded with an internal standard mixture beforehand. The metabolite concentrations were determined by UHPLC-MS/MS with multiple reaction monitoring (MRM) in a positive mode using a SCIEX API 5500 QTRAP® (AB SCIEX, Darmstadt, German) instrument with electrospray ionization (ESI). Data were quantitated using appropriate mass spectrometry software and imported in Biocrates Met/DQ™ software for further analysis.

healthy volunteers [2] = experiment: Population PK/PD model (Monolix) of circulating cholesterol versus Compound 1 plasma concentration, from three phase I studies; design: species or system human
Protocol: FIG. 2 is a bar graph showing predicted steady-state concentrations of circulating cholesterol levels during treatment with Compound 1 for subject administered placebo, 1 mg, 3 mg, 10 mg, 30 mg or 60 mg per day of Compound 1 at pharmacodynamic steady-state. The predicted concentrations are from simulations based on data from three phase I trials of Compound 1.
Based on these observations, a population PK/PD model was developed using Monolix to describe circulating cholesterol concentration as a function of plasma concentration of Compound 1 and exposure. The model was developed from cholesterol data from the study described above (Study 1) as well as two additional clinical studies (Study 2 and Study 3) in healthy volunteers. In Study 2, thirty healthy volunteers received a single oral dose of Compound 1 with 6 individual participants per cohort receiving 3 mg (Cohort 1), 10 mg (Cohort 2), 30 mg (Cohort 3), 60 mg (Cohort 4), 100 mg (Cohort 5). There were also 9 participants who received placebo in the study. In Study 3, 8 healthy adult volunteers received a single dose of 30 mg of Compound 1.

rat OPCs = experiment: Sterol levels (Metabolon HD4) in rat OPC cultures treated with Compound 1; type: cell-based; settings: rat OPC culture
Protocol: Enriched populations of oligodendrocytes from female Sprague Dawley postnatal day 2 (P2) rats were grown in culture. Briefly, the forebrain was dissected and placed in Hank's buffered salt solution (HBSS) (Life technologies). The tissue was cut into 1 mm fragments and incubated at 37° C. for 15 min in 0.01% trypsin and 10 μg/ml DNase. Dissociated cells were plated on poly-D-lysine (PDL)-coated T75 tissue culture flasks and grown at 37° C. for 10 days in Dulbecco's Modified Eagle Medium (DMEM) with 20% fetal calf serum (Life technologies). Oligodendrocyte precursors (A2B5+) were collected by shaking the flask overnight at 200 rpm at 37° C., resulting in a 95% pure population. Cultures were maintained in a defined growth medium (high glucose DMEM, 0.1% BSA, 50 ug/ml Apo-transferrin, 5 ug/ml insulin, 30 nM sodium selenite, 10 nM biotin and hydrocortisone) with 10 ng/ml fibroblast growth factor/platelet-derived growth factor (FGF/PDGF) (Peprotech) for 2-3 days. For assessing the ability of Compound 1 to promote the differentiation of rat A2B5+ progenitor cells into mature myelin basic protein positive (MBP+) myelinating oligodendrocytes, A2B5+ cells were plated into 10-cm PDL coated culture plates in FGF/PDGF free growth medium supplemented with 10 ng/ml CNTF and 15 nM T3 and were immediately treated for with Compound 1. The cell pellets were collected at 24 hours and 72 hours in culture and stored at −80° C. The cell pellets were subsequently shipped to Metabolon (Morrisville, NC, USA) and maintained at −80° C. during shipping and storage until processed. The cell pellet samples were extracted with methanol under vigorous shaking for 2 min (Glen Mills GenoGrinder 2000) to precipitate protein and dissociate small molecules bound to protein or trapped in the precipitated protein matrix, followed by centrifugation to recover chemically diverse metabolites. The resulting extract were next aliquot and analyzed on Metabolon's HD4 platform. Several types of quality control samples, including recovery standards added prior to extraction, technical replicates from a pool combined from each experimental sample, process and solvent blanks, and spiked a cocktail of QC standards, were applied during sample preparation and analysis for quality assessment and filtering failed samples.

CC[C@H]1CC[C@@H](Oc2ccc3cc(CN4CCC(C(=O)O)CC4)ccc3c2)CC1 [Compound 1, 1-((6-(((1s,4s)-4-ethylcyclohexyl)oxy)naphthalen-2-yl)methyl)piperidine-4-carboxylic acid]
accumulation of 7-dehydrocholesterol (7-DHC) (healthy volunteers [1]; healthy human volunteers): causes accumulation of 7-dehydrocholesterol (7-DHC)
average decrease in total cholesterol (healthy volunteers [1]; healthy volunteers, 60 mg dose, Study 1): approximately 20%
reduction in total circulating cholesterol (healthy volunteers [1]; healthy volunteers, QD for 28 days, FIG. 1): gradual, time- and dose-dependent reduction in total circulating cholesterol
model-predicted decrease of circulating cholesterol (healthy volunteers [2]; 60 mg QD, steady state): approximately 35%
predicted time for circulating cholesterol to return to baseline after discontinuation (healthy volunteers [2]; after discontinuation of treatment): ≤ 30 days
steady-state concentration of Compound 1 (healthy volunteers [2]; daily dose of 60 mg): about 3 μg/mL
time of increase to steady-state concentrations of Compound 1 in plasma (healthy volunteers [2]; daily dosing, cholesterol reduction predicted over the same time frame): approximately 15 days
EC50 for reduction in circulating cholesterol concentration (healthy volunteers [2]; plasma concentration of Compound 1, population PK/PD model): about 3 μg/mL
circulating cholesterol concentration in the model by daily dose (healthy volunteers [2]; population PK/PD model): reduced at all daily doses higher than 10 mg
7-DHC versus vehicle control (rat OPCs; 24 hours): 8.3 folds
cholesterol versus vehicle control (rat OPCs; 24 hours): 0.64 folds
desmosterol versus vehicle control (rat OPCs; 24 hours): 0.44 folds
7-DHC versus vehicle control (rat OPCs; 72 hours): 12.86 folds
cholesterol versus vehicle control (rat OPCs; 72 hours): insignificant change
desmosterol versus vehicle control (rat OPCs; 72 hours): 0.4 folds
